Data set [1] deals with Mus musculus. Description: Downregulation of I-kappa-B-alpha phosphorylation in liver of LPS-induced sepsis BALB/c mouse model at 7.5 to 30 mg/kg administered via gavage for 3 days followed by LPS treatment for 6 hrs by Western blot analysis. Type of data set: functional, organism-based. The settings on record: dose 7.5-30 mg/kg, time 78.0 hrs.
In data set [2] the test system is Mus musculus. Nature of the data set: Anti-septic activity in LPS-induced sepsis BALB/c mouse assessed as reduction in serum AST level at 30 mg/kg administered via gavage for 3 days followed by LPS treatment for 6 hrs. The data set is classed as functional, organism-based. Conditions: time 78.0 hrs.
The test system of data set [3] is Mus musculus. Nature of the data set: Anti-septic activity in LPS-induced sepsis BALB/c mouse assessed as increase in survival rate at 7.5 to 30 mg/kg administered via gavage for 3 days followed by LPS treatment for 6 hrs. The data set is classed as functional, organism-based. Conditions: dose 7.5-30 mg/kg, time 78.0 hrs.
For data set [4], the system named is Mus musculus. Nature of the data set: Anti-septic activity in LPS-induced sepsis BALB/c mouse assessed as reduction in serum IL-6 level at 7.5 to 30 mg/kg administered via gavage for 3 days followed by LPS treatment for 6 hrs by ELISA. The data set is classed as functional, organism-based. Conditions: dose 7.5-30 mg/kg, time 78.0 hrs.
Data set [5] in a line: Cytotoxicity against mouse RAW264.7 cells assessed as cell viability at 40 uM incubated for 24 hrs by MTT assay relative to control. The data set is classed as toxicity, cell-based. Conditions: read-out: Activity.
Data set [6] has as its target T1, Glucocorticoid receptor (Mus musculus) (UniProt P06537).
T1 sequence (whole entry): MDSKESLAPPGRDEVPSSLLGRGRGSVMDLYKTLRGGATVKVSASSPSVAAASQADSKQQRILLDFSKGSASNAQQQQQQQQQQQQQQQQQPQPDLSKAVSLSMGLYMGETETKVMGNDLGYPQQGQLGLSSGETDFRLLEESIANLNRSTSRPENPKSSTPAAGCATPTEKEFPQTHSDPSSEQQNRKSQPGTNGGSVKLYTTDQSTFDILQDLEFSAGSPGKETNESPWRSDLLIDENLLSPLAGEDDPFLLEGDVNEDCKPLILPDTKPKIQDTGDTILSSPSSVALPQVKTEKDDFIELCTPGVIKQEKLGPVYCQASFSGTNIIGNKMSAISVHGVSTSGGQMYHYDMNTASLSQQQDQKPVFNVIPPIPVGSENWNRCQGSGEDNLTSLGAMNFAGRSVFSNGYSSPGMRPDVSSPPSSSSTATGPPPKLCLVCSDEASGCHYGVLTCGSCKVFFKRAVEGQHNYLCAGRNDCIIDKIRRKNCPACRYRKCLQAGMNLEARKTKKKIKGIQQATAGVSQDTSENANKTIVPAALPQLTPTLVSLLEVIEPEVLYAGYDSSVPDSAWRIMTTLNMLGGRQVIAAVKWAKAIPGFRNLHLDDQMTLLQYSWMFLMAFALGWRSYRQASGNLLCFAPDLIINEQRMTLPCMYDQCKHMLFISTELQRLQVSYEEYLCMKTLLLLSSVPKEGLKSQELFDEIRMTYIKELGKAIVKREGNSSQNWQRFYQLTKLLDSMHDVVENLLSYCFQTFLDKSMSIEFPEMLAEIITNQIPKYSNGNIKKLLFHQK
Description: Stabilization of glucocorticoid receptor in mouse RAW264.7 cells assessed as blockade of CHX-induced protein degradation at 20 uM incubated for 24 hrs by Western blot analysis. The data set is classed as cell-based.

In data set [7] the test system is RAW264.7. Nature of the data set: Anti-inflammatory activity in LPS-treated mouse RAW264.7 cells assessed as reversal of nuclear translocation of p65 at 20 uM pretreated for 2 hrs followed by LPS stimulation for 24 hrs by immunofluorescence analysis. Type of data set: functional, cell-based. Conditions: time 26.0 hrs.
The subject of data set [8] is Mus musculus. Nature of the data set: Anti-septic activity in LPS-induced sepsis BALB/c mouse assessed as reduction in serum ALT level at 30 mg/kg administered via gavage for 3 days followed by LPS treatment for 6 hrs. The settings on record: time 78.0 hrs. Type of data set: functional, organism-based.
Data set [9] relates to RAW264.7. Nature of the data set: Inhibition of LPS-induced NO production in mouse RAW264.7 cells at 20 uM pretreated for 2 hrs followed by LPS stimulation for 24 hrs by Griess assay relative to control. The data set is classed as functional. Conditions: time 26 hrs.
In data set [10] the target is T1, Glucocorticoid receptor (Mus musculus). Description: Modulation of glucocorticoid receptor in LPS-treated mouse RAW264.7 cells assessed as protein translocation from cytoplasm to nucleus at 20 uM pretreated for 12 hrs followed by LPS stimulation for 2 hrs by immunofluorescence based analysis. The settings on record: filed as modulator, time 14.0 hrs. Type of data set: subcellular.

Among the data in ChEMBL document CHEMBL5500363, “Discovery of novel ocotillol derivatives modulating glucocorticoid receptor/NF-κB signaling for the treatment of sepsis” (Eur J Med Chem, 2024) are Activity, viability and inhibition values, retold here.

Active and inactive are the calls of the source. The calls are words filed in the database; no cut-off is given here.

As to `CC(C)(C)OC(=O)CCC(=O)Nc1nc2c(s1)C[C@]1(C)[C@H]3C[C@@H](O)[C@@H]4C([C@]5(C)CC[C@@H](C(C)(C)O)O5)CC[C@@]4(C)[C@]3(C)CC[C@H]1C2(C)C` (stereo not given in full), the outcome (with Mus musculus [1]; in the data set with Mus musculus [2]; in the data set with Mus musculus [3]; in the data set on Mus musculus [4]; in data set [6]; in the data set with RAW264.7 [7]) was Active. For the same compound, the outcome (in the data set on Mus musculus [8]; in data set [10]) was Active. For the same compound, the viability at 24 h, 40 µM in data set [5] was above 90%. In addition, the inhibition at 20 µM with RAW264.7 [9] turned out to be 86%.
